The record followed here is patent US11034650B2, “Compounds useful for treating a Mannheimia haemolytica or Histophilus somni infection” (Intervet Inc., priority 2016, dated 2021).

In brackets after ≈: the same amount, converted by molar mass.

The test system of one assay is Mannheimia haemolytica MH 6357 (M7/2, reference strain, cattle infection strain). Put plainly: MIC, broth-microdilution (CLSI VET01-A4), strain MH 6357. Type of assay: cell-based. Particulars: Mannheimia haemolytica strain MH 6357, broth-microdilution; unit assumed. Summed up: (§1)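 The compound was titrated in twofold steps in microdilution trays. Absence of turbidity, checked without instruments, marked the MIC at the lowest such concentration.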
With `N#CCNCc1ccc(C#Cc2ccc(C(=O)N[C@@H](CO)C(=O)NO)cc2)cc1` [Compound 216], the MIC MH 6357 turned out to be 1.6 mg/L (≈ 4.08 µM).

`CC[C@H](C)[C@H](NC(=O)c1ccc(C#Cc2ccc(CNC3CCCC3)cc2)cc1)C(=O)NO` [Compound 196] yielded an MIC MH 6357 of 6.3 mg/L (≈ 14.1 µM).

`CC(C)(O)[C@H](NC(=O)c1ccc(C#Cc2ccc(CNCc3ccccn3)cc2)cc1)C(=O)NO` [Compound 230] displayed an MIC MH 6357 of 0.8 mg/L (≈ 1.69 µM).

The compound `CC[C@H](C)[C@H](NC(=O)c1ccc(C#Cc2ccc(CN3CCN(C)CC3)cc2)cc1)C(=O)NO` [Compound 175] had an MIC MH 6357 of 6.3 mg/L (≈ 13.6 µM).

For another assay, the system named is Mannheimia haemolytica MH 6374 (ATCC 33396, reference strain). The assay is described as follows: MIC, broth-microdilution (CLSI VET01-A4), strain MH 6374. It is filed as cell-based. Particulars: Mannheimia haemolytica strain MH 6374, broth-microdilution; unit assumed. Summed up: as §1
`N#CCNCc1ccc(C#Cc2ccc(C(=O)N[C@@H](CO)C(=O)NO)cc2)cc1` [Compound 216] registered an MIC MH 6374 of 3.1 mg/L (≈ 7.9 µM).

Turning to `CC[C@H](C)[C@H](NC(=O)c1ccc(C#Cc2ccc(CNC3CCCC3)cc2)cc1)C(=O)NO` [Compound 196], the MIC MH 6374 is 12.5 mg/L (≈ 27.9 µM).

As for `CC(C)(O)[C@H](NC(=O)c1ccc(C#Cc2ccc(CNCc3ccccn3)cc2)cc1)C(=O)NO` [Compound 230], the MIC MH 6374 was 0.4 mg/L (≈ 0.846 µM).

Consider `CC[C@H](C)[C@H](NC(=O)c1ccc(C#Cc2ccc(CN3CCN(C)CC3)cc2)cc1)C(=O)NO` [Compound 175], for which the MIC MH 6374 came out at 12.5 mg/L (≈ 27 µM).

A further assay concerns Mannheimia haemolytica MH 10720 (154, BRD field isolate). The assay is described as follows: MIC, broth-microdilution (CLSI VET01-A4), strain MH 10720. The settings on record: Mannheimia haemolytica strain MH 10720, broth-microdilution; unit assumed. Type of assay: cell-based. Summed up: as §1
Take `N#CCNCc1ccc(C#Cc2ccc(C(=O)N[C@@H](CO)C(=O)NO)cc2)cc1` [Compound 216]: the MIC MH 10720 turned out to be 0.8 mg/L (≈ 2.04 µM).

In turn, `CC[C@H](C)[C@H](NC(=O)c1ccc(C#Cc2ccc(CNC3CCCC3)cc2)cc1)C(=O)NO` [Compound 196] gave an MIC MH 10720 of 1.6 mg/L (≈ 3.57 µM).

In turn, `CC(C)(O)[C@H](NC(=O)c1ccc(C#Cc2ccc(CNCc3ccccn3)cc2)cc1)C(=O)NO` [Compound 230] gave an MIC MH 10720 of at most 0.1 mg/L.

The compound `CC[C@H](C)[C@H](NC(=O)c1ccc(C#Cc2ccc(CN3CCN(C)CC3)cc2)cc1)C(=O)NO` [Compound 175] had an MIC MH 10720 of 3.1 mg/L (≈ 6.7 µM).

The test system of a further assay is Mannheimia haemolytica MH 12587 (1071, BRD field isolate, macrolide-resistance: erm+, E+). Put plainly: MIC, broth-microdilution (CLSI VET01-A4), strain MH 12587. It is filed as cell-based. Particulars: Mannheimia haemolytica strain MH 12587, broth-microdilution; unit assumed. Summed up:
as §1
Compound `N#CCNCc1ccc(C#Cc2ccc(C(=O)N[C@@H](CO)C(=O)NO)cc2)cc1` [Compound 216] returned an MIC MH 12587 of 3.1 mg/L (≈ 7.9 µM).

In turn, `CC[C@H](C)[C@H](NC(=O)c1ccc(C#Cc2ccc(CNC3CCCC3)cc2)cc1)C(=O)NO` [Compound 196] yielded an MIC MH 12587 of 12.5 mg/L (≈ 27.9 µM).

Turning to `CC(C)(O)[C@H](NC(=O)c1ccc(C#Cc2ccc(CNCc3ccccn3)cc2)cc1)C(=O)NO` [Compound 230], the MIC MH 12587 was found to be 1.6 mg/L (≈ 3.39 µM).

The compound `CC[C@H](C)[C@H](NC(=O)c1ccc(C#Cc2ccc(CN3CCN(C)CC3)cc2)cc1)C(=O)NO` [Compound 175] showed an MIC MH 12587 of 25 mg/L (≈ 54 µM).

For another assay, the system named is Mannheimia haemolytica MH 13065 (XB0446-6003.9, BRD field isolate). The assay is described as follows: MIC, broth-microdilution (CLSI VET01-A4), strain MH 13065. Type of assay: cell-based. Particulars: Mannheimia haemolytica strain MH 13065, broth-microdilution; unit assumed. Summed up: as §1
In the case of `N#CCNCc1ccc(C#Cc2ccc(C(=O)N[C@@H](CO)C(=O)NO)cc2)cc1` [Compound 216], the MIC MH 13065 worked out at 1.6 mg/L (≈ 4.08 µM).

As for `CC[C@H](C)[C@H](NC(=O)c1ccc(C#Cc2ccc(CNC3CCCC3)cc2)cc1)C(=O)NO` [Compound 196], the MIC MH 13065 was 6.3 mg/L (≈ 14.1 µM).

Consider `CC(C)(O)[C@H](NC(=O)c1ccc(C#Cc2ccc(CNCc3ccccn3)cc2)cc1)C(=O)NO` [Compound 230], for which the MIC MH 13065 came to 0.8 mg/L (≈ 1.69 µM).

In the case of `CC[C@H](C)[C@H](NC(=O)c1ccc(C#Cc2ccc(CN3CCN(C)CC3)cc2)cc1)C(=O)NO` [Compound 175], the MIC MH 13065 turned out to be 12.5 mg/L (≈ 27 µM).

Another assay relates to Mannheimia haemolytica MH 13093 (XB0472-6014.1, BRD field isolate). Put plainly: MIC, broth-microdilution (CLSI VET01-A4), strain MH 13093. Particulars: Mannheimia haemolytica strain MH 13093, broth-microdilution; unit assumed. Type of assay: cell-based. Summed up: as §1
For `N#CCNCc1ccc(C#Cc2ccc(C(=O)N[C@@H](CO)C(=O)NO)cc2)cc1` [Compound 216], the MIC MH 13093 turned out to be 3.1 mg/L (≈ 7.9 µM).

Compound `CC[C@H](C)[C@H](NC(=O)c1ccc(C#Cc2ccc(CNC3CCCC3)cc2)cc1)C(=O)NO` [Compound 196] gave an MIC MH 13093 of 12.5 mg/L (≈ 27.9 µM).

`CC(C)(O)[C@H](NC(=O)c1ccc(C#Cc2ccc(CNCc3ccccn3)cc2)cc1)C(=O)NO` [Compound 230] yielded an MIC MH 13093 of 0.8 mg/L (≈ 1.69 µM).

In turn, `CC[C@H](C)[C@H](NC(=O)c1ccc(C#Cc2ccc(CN3CCN(C)CC3)cc2)cc1)C(=O)NO` [Compound 175] returned an MIC MH 13093 of 12.5 mg/L (≈ 27 µM).

The test system of a further assay is Pasteurella multocida PM 6267 (P 2225 (L386), reference strain, mouse infection strain). Put plainly: MIC, broth-microdilution (CLSI VET01-A4), strain PM 6267. It is filed as cell-based. Particulars: Pasteurella multocida strain PM 6267, broth-microdilution; unit assumed. Summed up: as §1
As for `N#CCNCc1ccc(C#Cc2ccc(C(=O)N[C@@H](CO)C(=O)NO)cc2)cc1` [Compound 216], the MIC PM 6267 was at most 0.1 mg/L.

In the case of `CC[C@H](C)[C@H](NC(=O)c1ccc(C#Cc2ccc(CNC3CCCC3)cc2)cc1)C(=O)NO` [Compound 196], the MIC PM 6267 came to 0.2 mg/L (≈ 0.447 µM).

The compound `CC(C)(O)[C@H](NC(=O)c1ccc(C#Cc2ccc(CNCc3ccccn3)cc2)cc1)C(=O)NO` [Compound 230] returned an MIC PM 6267 of at most 0.1 mg/L.

Take `CC[C@H](C)[C@H](NC(=O)c1ccc(C#Cc2ccc(CN3CCN(C)CC3)cc2)cc1)C(=O)NO` [Compound 175]: the MIC PM 6267 stood at 0.4 mg/L (≈ 0.865 µM).

In another assay the test system is Pasteurella multocida PM 6391 (ATCC 43137, reference strain). Put plainly: MIC, broth-microdilution (CLSI VET01-A4), strain PM 6391. Type of assay: cell-based. Particulars: Pasteurella multocida strain PM 6391, broth-microdilution; unit assumed. Summed up:
as §1
In the case of `N#CCNCc1ccc(C#Cc2ccc(C(=O)N[C@@H](CO)C(=O)NO)cc2)cc1` [Compound 216], the MIC PM 6391 came out at 0.2 mg/L (≈ 0.51 µM).

In the case of `CC[C@H](C)[C@H](NC(=O)c1ccc(C#Cc2ccc(CNC3CCCC3)cc2)cc1)C(=O)NO` [Compound 196], the MIC PM 6391 was determined as 0.8 mg/L (≈ 1.79 µM).

`CC(C)(O)[C@H](NC(=O)c1ccc(C#Cc2ccc(CNCc3ccccn3)cc2)cc1)C(=O)NO` [Compound 230] returned an MIC PM 6391 of at most 0.1 mg/L.

`CC[C@H](C)[C@H](NC(=O)c1ccc(C#Cc2ccc(CN3CCN(C)CC3)cc2)cc1)C(=O)NO` [Compound 175] came in with an MIC PM 6391 of 1.6 mg/L (≈ 3.46 µM).

The test system of a further assay is Pasteurella multocida PM 10775 (080130003051, BRD field isolate). Put plainly: MIC, broth-microdilution (CLSI VET01-A4), strain PM 10775. It is filed as cell-based. Particulars: Pasteurella multocida strain PM 10775, broth-microdilution; unit assumed. Summed up: as §1
Take `N#CCNCc1ccc(C#Cc2ccc(C(=O)N[C@@H](CO)C(=O)NO)cc2)cc1` [Compound 216]: the MIC PM 10775 was at most 0.1 mg/L.

Regarding `CC[C@H](C)[C@H](NC(=O)c1ccc(C#Cc2ccc(CNC3CCCC3)cc2)cc1)C(=O)NO` [Compound 196], the MIC PM 10775 is at most 0.1 mg/L.

In turn, `CC(C)(O)[C@H](NC(=O)c1ccc(C#Cc2ccc(CNCc3ccccn3)cc2)cc1)C(=O)NO` [Compound 230] displayed an MIC PM 10775 of at most 0.1 mg/L.

In turn, `CC[C@H](C)[C@H](NC(=O)c1ccc(C#Cc2ccc(CN3CCN(C)CC3)cc2)cc1)C(=O)NO` [Compound 175] registered an MIC PM 10775 of at most 0.1 mg/L.

A further assay deals with Pasteurella multocida PM 12080 (IV102277-0093, BRD field isolate). Put plainly: MIC, broth-microdilution (CLSI VET01-A4), strain PM 12080. It is filed as cell-based. Particulars: Pasteurella multocida strain PM 12080, broth-microdilution; unit assumed. Summed up:
as §1
As to `N#CCNCc1ccc(C#Cc2ccc(C(=O)N[C@@H](CO)C(=O)NO)cc2)cc1` [Compound 216], the MIC PM 12080 was 0.2 mg/L (≈ 0.51 µM).

`CC[C@H](C)[C@H](NC(=O)c1ccc(C#Cc2ccc(CNC3CCCC3)cc2)cc1)C(=O)NO` [Compound 196]: the MIC PM 12080 is 0.4 mg/L (≈ 0.894 µM).

Regarding `CC(C)(O)[C@H](NC(=O)c1ccc(C#Cc2ccc(CNCc3ccccn3)cc2)cc1)C(=O)NO` [Compound 230], the MIC PM 12080 was at most 0.1 mg/L.

The compound `CC[C@H](C)[C@H](NC(=O)c1ccc(C#Cc2ccc(CN3CCN(C)CC3)cc2)cc1)C(=O)NO` [Compound 175] came in with an MIC PM 12080 of 0.8 mg/L (≈ 1.73 µM).
